# Laboratory results reported in patent US6022868A, “Substituted azacyclic or azabicyclic compounds” (Novo Nordisk Als, priority 1995, dated 2000).
# pIC50: −log10 of the molar value.
# Key:
# [1] = target: T1, nicotinic acetylcholine receptors (Rattus norvegicus, UniProt P09483+P12390); experiment: inhibition of specific binding of 3H-methylcarbamylcholine (3H-MCC) to rat cortical receptors; details: for pIC50: rat cortical receptors, 3H-MCC 2 nM, 0° C., 60 min; for Oxo/MCC Ratio: selectivity for nicotinic (3H-MCC) over muscarinic (3H-Oxo) receptors, rat cortex
# T1 construct: Fresh or frozen rat, brain tissue (hippocampus or cortex) was homogenized in assay buffer; from tissue; host or cells: rat brain tissue (hippocampus or cortex)
# T1 sequence (P09483 31-630): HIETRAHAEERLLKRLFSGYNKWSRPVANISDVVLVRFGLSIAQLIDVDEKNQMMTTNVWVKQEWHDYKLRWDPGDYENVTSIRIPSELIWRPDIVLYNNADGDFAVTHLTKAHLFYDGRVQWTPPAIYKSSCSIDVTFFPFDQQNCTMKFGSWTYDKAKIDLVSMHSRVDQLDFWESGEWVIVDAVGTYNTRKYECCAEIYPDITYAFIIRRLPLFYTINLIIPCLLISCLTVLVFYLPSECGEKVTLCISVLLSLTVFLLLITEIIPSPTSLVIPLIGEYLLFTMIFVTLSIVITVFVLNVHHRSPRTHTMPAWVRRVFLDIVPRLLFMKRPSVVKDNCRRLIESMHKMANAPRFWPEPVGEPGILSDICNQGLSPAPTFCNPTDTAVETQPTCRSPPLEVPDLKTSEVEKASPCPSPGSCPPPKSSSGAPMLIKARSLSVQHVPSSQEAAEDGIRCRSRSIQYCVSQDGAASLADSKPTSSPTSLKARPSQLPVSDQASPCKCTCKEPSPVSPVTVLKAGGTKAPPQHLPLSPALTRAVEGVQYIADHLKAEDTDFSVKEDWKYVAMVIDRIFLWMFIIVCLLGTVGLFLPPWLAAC
# T1 sequence (P12390 25-500): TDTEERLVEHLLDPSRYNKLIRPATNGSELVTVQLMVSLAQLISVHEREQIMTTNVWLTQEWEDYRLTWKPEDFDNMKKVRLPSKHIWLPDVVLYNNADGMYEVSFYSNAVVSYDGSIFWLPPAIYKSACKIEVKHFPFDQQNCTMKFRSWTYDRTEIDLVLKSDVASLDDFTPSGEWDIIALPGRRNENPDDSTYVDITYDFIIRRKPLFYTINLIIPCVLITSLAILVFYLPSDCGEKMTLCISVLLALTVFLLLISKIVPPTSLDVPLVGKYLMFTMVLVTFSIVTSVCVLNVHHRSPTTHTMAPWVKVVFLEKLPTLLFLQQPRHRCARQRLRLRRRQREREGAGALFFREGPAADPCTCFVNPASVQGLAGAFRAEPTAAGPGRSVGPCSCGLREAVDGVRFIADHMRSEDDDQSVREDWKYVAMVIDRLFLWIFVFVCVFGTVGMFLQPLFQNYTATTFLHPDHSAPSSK
# Text: The pharmacological properties of the compounds of the invention can be illustrated by determining their capability to inhibit the specific binding of ^3 H-methylcarbamylcholine (^3 H-MCC) (Abood and Grassi, Biochem. Pharmacol., Vol. 35, pp. 4199-4202, (1986)).
# ^3 H-MCC labels the nicotinic receptors in the CNS. The inhibitory effect on ^3 H-MCC binding reflects the affinity for nicotinic acetylcholine receptors.
# Fresh or frozen rat, brain tissue (hippocampus or cortex) was homogenized in assay buffer (5OmM Tris--HCI, pH 7.4, 120 mM NaCI, 5 mM KCI, 2 mM CaCI21 1mM MgCI2) and centrifuged for 10 min. at 40.000×g.Pellets were subsequently reconstituted in assay buffer and an appropriate amount of tissue sample was mixed in tubes with ^3 H--methylcarbamylcholine (NEN, NET--951; final concentration 2 nM) and test drug. The tubes were incubated at 0° C. for 60 min. Unbound ligand was separated from bound ligand by vacuum filtration through GF/B filters presoaked in 0.5 % polyethylenimine. Filters were washed three times with 5 ml wash buffer (50mM Tris--HCI, pH 7.4) and transferred to vials. 4 ml scintillation fluid was added and the radioactivity was measured by scintillation counting. Unspecific binding was measured with 10 μM nicotine.
# The IC50 values of the test compounds were determined by nonlinear regression analyses (GraphPad InPlot).
# Table I illustrates the affinity of the compounds of the present invention for nicotinic and muscarinic receptors as determined by ^3 H-MCC and ^3 H-Oxo binding to rat cortical receptors. The compounds, however, show selective affinity for nicotinic receptors as compared to muscarinic receptors, i.e OXO/MCC >1.
# [2] = target: muscarinic acetylcholine receptors; experiment: inhibition of specific binding of 3H-Oxotremorine-M (3H-Oxo) to rat cortical receptors; details: 3H-Oxo 1.0 nM, 25° C., 30 min
# Text: Furthermore, the pharmacological properties of the compounds of the invention can also be illustrated by determining their capability to inhibit the specific binding of ^3 H-Oxotremorine--M (^3 H-Oxo). Birdsdall N.J.M., Hulme E.C., and Burgen A.S.V. (1980). "The Character of Muscarinic Receptors in Different Regions of the Rat Brain". Proc. Roy. Soc. London (Series B) 207,1.
# ^3 H-Oxo labels muscarinic receptor in the CNS (with a preference for agonist domains of the receptors). Three different sites are labelled by ^3 H-Oxo. […] Using the present experimental conditions only the high and medium affinity sites are determined.
# The inhibitory effects of compounds on ^3 H--Oxo binding reflects the affinity for muscarinic acetylcholine receptors.
# All preparations are performed at 0-4° C. unless otherwise indicated. […]
# The final pellet is homogenized in 20 mM Hepes pH: 7.4 (100 ml per g of original tissue) and used for binding assay. […] Non-specific binding is determined in triplicate using arecoline (1 ug/ml, final concentration) as the test substance. […] The amount of radioactivity on the filters are determined by conventional liquid scintillation counting. […]
# Table I illustrates the affinity of the compounds of the present invention for nicotinic and muscarinic receptors as determined by ^3 H-MCC and ^3 H-Oxo binding to rat cortical receptors. […]
# substantia nigra = details: chronic nicotine; cited from earlier work
# [3] = test system: dopamine release in the nucleus accumbens; details: cited from earlier work
# [4] = in vivo; cited from earlier work
# [5] = test system: dopaminergic effects in various behavioral models; details: cited from earlier work
Compound,pIC50 [1],Oxo/MCC Ratio [1],pIC50 [2],protection against cell loss in the substantia nigra caused by lesioning (substantia nigra),"stimulation of dopamine release, nucleus accumbens versus striatum [3]",effect in Tourette's syndrome [4],potentiation of dopaminergic effects [5]
"Cc1cc(/C=C2/CCCN(C)C2)on1.O=C(O)C(=O)O [Compound 1, (Z)-3-(3-Methyl-5-isoxazolyl)methylene-1-methylpiperidine oxalate]",5.52,1.7,5.29,–,–,–,–
"Cc1cc(/C=C2/CCCNC2)on1.Cl [Compound 5, (Z)-3-(3-Methyl-5-isoxazolyl)methylenepiperidine hydrochloride]",7.00,100,5.00,–,–,–,–
CN1CCCC1c1cccnc1 (stereo not shown) [nicotine],–,–,–,may protect against cell loss in the substantia nigra caused by lesioning,stimulates dopamine release in the nucleus accumbens more potently than in striatum,beneficial effects in Tourette's syndrome,will potentiate dopaminergic effects in various behavioral models
